Experiments:
[1] = system: Hydrolyzed Bovine Dry Collagen protein medium; assay: Cross-linking test: skin (crust) formation on protein medium after spraying
Experimental: Tests were performed in order to obtain a skin (crust) on the protein medium by using a cross-linking agent. Time, temperature and skim formation were monitored. Tests were performed at 40° F.—both medium and solutions were cooled to test temperature. Test medium was prepared by mixing a solution containing 85% D.I. water and 15% Hydrolyzed Bovine Dry Collagen (purchased from Milligan & Higgens). Approx 4 oz of the preparation was put into Petri dishes, placed in a refrigerator for thirty minutes before reacclimatizing at room temperature, ready for testing. Subsequently, the various test solutions were poured into 4 oz bottles with spray nozzles and 10 ml of solution was sprayed onto the medium in the petri dishes from a distance of 6 inches, timed and viewed at 15 minute intervals and the contents of the petri dish was then scored for skin formation. The time and extent of skin formation was noted and transposed to graphs (see FIGS. 1-4).
A second series of tests were run using Egg Albumin Powder (purchased from J.T. Baker) as the protein medium, prepared by mixing 85% D.I. water and 15% Egg Albumin Powder. Both test produced identical results.
Lab testing was performed to assess cross-linking ability of various compositions. […]

[2] = system: digital dermatitis lesions; assay: Actual field application on digital dermatitis lesions (scab formation); assay type: in vivo, cow; details: glutaraldehyde at less than 5%, applied on digital dermatitis lesions

SMILES	cross-linking of test samples (in words) ([1]; glutaraldehyde reduced to less than 5%, FIG. 2)	facilitating adequate scab formation in an acceptable time span [2]	cross-linking effects, maximum extent of skin formation ([1]; glyoxal alone, scored from 0 to 10, FIG. 3)
O=CCCCC=O [glutaraldehyde]	significantly less cross-linking	ineffective	–
O=CC=O [glyoxal]	–	–	2.5

Source: patent US20150366819A1, “COMPOSITIONS AND METHODS FOR TREATING HOOF DISEASES” (AGROCHEM, INC., priority 2008, published 2015)
